A short description of the series: In vivo pharmacokinetic study in beagle dogs after single administration. The following applies: male, dog, plasma, 2 mg/kg, 2 mpk intravenous injection. The procedure:
Male beagle dogs were used as test animals, the concentration of the compound in blood after single administration was determined to evaluate the pharmacokinetic behavior.
Beagle dogs (Male, 6-12 kg, more than 6 months, Beijing Marshall Biotechnology Co., Ltd.).
The objective of the test was to study the pharmacokinetic characteristics of the test compound in non-rodent after intravenous injection and oral administration. In the experiment, the test compound was prepared into a clear solution or homogeneous suspension and administered to the beagle dogs by single intravenous injection or oral administration. In the intravenous injection group, the menstruum was a certain proportion of dimethyl sulfoxide in HP-β-cyclodextrin solution or a certain proportion of ethanol, polyethylene glycol 400 and physiological saline solution, the mixture was vortexed and subjected to ultrasonic treatment to prepare 2 mg/mL clear solution, then filtered with microporous membrane for later use; in the oral administration group, the menstruum was a certain proportion of dimethyl sulfoxide in HP-β-cyclodextrin solution or a certain proportion of sodium carboxymethyl cellulose solution, the test compound was mixed with the menstruum, vortexed and subjected to ultrasonic treatment to prepare 2 mg/mL homogeneous suspension for later use. After 2 mg/kg intravenous administration or 10 mg/kg oral administration to the Beagle dogs, a certain amount of whole blood samples were collected, centrifuged at 3000 g for 10 minutes, and the supernatant was separated to obtain plasma samples; then an acetonitrile solution containing internal standard with a volume 10 times that of the plasma sample was added to precipitate proteins, and then centrifuged; the supernatant was separated for analysis; LC-MS/MS analysis method was used to quantitatively analyze the blood drug concentration, and Phoenix WinNonlin software (Pharsight, USA) was used to calculate the pharmacokinetic parameters, such as peak concentration, time to peak concentration, clearance rate, half-life, area under the concentration-time curve, bioavailability, etc.
Among them, C0 is the initial concentration, T1/2 is the elimination half-life, Vdss is the steady-state apparent volume of distribution, Cl is the total clearance rate, AUC0-inf is the area under the plasma drug concentration-time curve from time 0 to infinity, Cmax is the peak concentration, Tmax is the time to peak concentration.

What is called AUC(0-inf) is total exposure, with the tail of the curve extrapolated. A lower AUC(0-inf) goes with less exposure. The term clearance denotes the rate of elimination divided by the concentration. Read a low clearance as a low capacity for elimination. By half-life is commonly meant how long it takes for the measured level to halve. Low readings indicate rapid decline, high ones slow decline. In the case of `COCCN1C[C@@H](n2ccc(F)c2)[C@H](NC(=O)Nc2c(C)c(-c3cnc(C4(F)COC4)nc3)nn2-c2ccccc2)C1` [Compound of formula (I)], the AUC(0-inf) is 4.66 µM·h, the C0 amounted to 8.46 µM, the clearance was found to be 12.4 mL/min/kg and the half-life is 26.4 min. The Vd (read-out: Vdss) amounted to 0.49 L/kg.
